According to patent US12139475B2, “2-oxindole compounds” (CHEMOCENTRYX, INC., priority 2016, dated 2024):

Molecular target: T1, CCR(9) (Homo sapiens, UniProt P51686)
T1 construct: MOLT-4 cells were collected by centrifugation at 400×g at room temperature, then suspended at 50 million/ml in human serum; host or cells: MOLT-4
T1 sequence (P51686 1-369): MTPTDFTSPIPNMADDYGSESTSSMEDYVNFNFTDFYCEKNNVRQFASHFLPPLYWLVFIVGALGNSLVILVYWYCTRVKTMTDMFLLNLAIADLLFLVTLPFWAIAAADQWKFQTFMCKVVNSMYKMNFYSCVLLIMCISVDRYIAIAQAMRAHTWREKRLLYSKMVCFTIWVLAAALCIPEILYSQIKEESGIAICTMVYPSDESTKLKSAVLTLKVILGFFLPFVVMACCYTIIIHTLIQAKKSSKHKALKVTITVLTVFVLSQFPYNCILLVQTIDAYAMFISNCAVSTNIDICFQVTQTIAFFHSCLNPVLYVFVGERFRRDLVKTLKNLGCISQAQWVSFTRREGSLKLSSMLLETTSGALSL
Assay: Serum chemotaxis assay (MOLT-4 cells, TECK-induced migration, ChemoTX)
Type: cell-based
Conditions: MOLT-4 cells in human serum, migration to recombinant human TECK, 90 minutes at 37° C.
Experimental: MOLT-4 cells were obtained from the American Type Culture Collection (Manassas, VA) and cultured in RPMI tissue culture medium supplemented with 10% fetal calf serum (FCS) in a humidified 5% CO2 incubator at 37° C. Recombinant human chemokine proteins TECK was obtained from R&D Systems (Minneapolis, MN). ChemoTX™ chemotaxis microchambers were purchased from Neuro Probe (Gaithersburg, MD). CyQUANT™ cell proliferation kits were purchased from Molecular Probes (Eugene, Oregon). Calcium indicator dye Fluo-4 AM was purchased from Molecular Devices (Mountain View, CA).
A serum chemotaxis assay was used to determine the efficacy of potential receptor antagonists at blocking the migration mediated through chemokine receptors, such as CCR(9). This assay was performed using the ChemoTX® microchamber system with a 5-μm pore-sized polycarbonate membrane. MOLT-4 cells were collected by centrifugation at 400×g at room temperature, then suspended at 50 million/ml in human serum, containing 50 mM HEPES (final pH of 7.2). The compound being tested or an equivalent volume of its solvent (DMSO) was then added to the cell/serum mixture at a final DMSO concentration of 0.125% (v/v), and this mixture was then incubated together at 37° C. for one hour. Separately, recombinant human TECK was diluted with chemotaxis buffer (HBSS+0.1% BSA), generally spanning a range from 0.1 nM to 500 nM, after which 29 μl of diluted chemokine was placed in the lower wells of the ChemoTX® plate. The 5-μm (pore size) polycarbonate membrane was placed onto the plate, and 20 μL of the cell/compound mixture was transferred onto each well of the membrane. The plates were incubated at 37° C. for 90 minutes, after which the polycarbonate membranes were removed and 5 μl of the DNA-intercalating agent CyQUANT (Invitrogen, Carlsbad, CA) was added to the lower wells. The amount of fluorescence, corresponding to the number of migrated cells, was measured using a Spectrafluor Plus plate reader (TECAN, San Jose, CA).
The A2 values were calculated from the following equation, comparing the efficacy of the test compound with that of the DMSO-only control at equi-active chemokine levels: Log(A2)=log[drug(M)]−log[(A′/A)−1] where A reflects the potency of the agonist in the absence of antagonist and A′ reflects the potency of the agonist in the presence of antagonist at a given concentration of drug ([drug(M)]). In Vivo Efficacy Models for Human IBD

| SMILES | Chemotaxis A2 |
| --- | --- |
| Cc1cc(C(C)(C)C)ccc1C1(C)C(=O)N(c2cccc(C(=O)O)c2)c2ccc(Cl)cc21 (centres unmarked) | +++ (100 nM > A2) |
| CC(C)Oc1ccc(C2(C)C(=O)N(c3cccc(C(=O)O)c3)c3ccc(Cl)cc32)cc1 (centres unmarked) | +++ (100 nM > A2) |
| CC(C)(C)c1ccc(C2(C)C(=O)N(c3cccc(C(=O)O)c3)c3c(Cl)cc(Cl)cc32)cc1 (centres unmarked) | + (20000 nM ≥ A2 ≥ 500 nM) |
| CC(C)(C)c1ccc(C2(C)C(=O)N(c3ccccc3C(=O)O)c3ccc(Cl)cc32)cc1 (centres unmarked) | ++ (500 nM > A2 ≥ 100 nM) |
| Cc1ccc2c(c1)C(C)(c1ccc(C(C)(C)C)c(F)c1)C(=O)N2c1cccc(C(=O)O)c1 (centres unmarked) | +++ (100 nM > A2) |
| CC(C)(C)c1ccc(C2(C)C(=O)N(c3cccc(C(=O)O)c3)c3cc(Cl)ccc32)cc1F (centres unmarked) | + (20000 nM ≥ A2 ≥ 500 nM) |
| CC(C)Oc1ccc(C2(C)C(=O)N(c3ccc(C(=O)O)cc3)c3ccc(Cl)cc32)cc1 (centres unmarked) | +++ (100 nM > A2) |
| CC(C)(C)c1ccc(C2(C)C(=O)N(c3ccc(C(=O)O)c(F)c3)c3ccc(Cl)cc32)cc1 (centres unmarked) | ++ (500 nM > A2 ≥ 100 nM) |
| CC(C)(C)c1ccc(C2(C)C(=O)N(c3cc(F)cc(C(=O)O)c3)c3ccc(Cl)cc32)cc1 (centres unmarked) | +++ (100 nM > A2) |
| Cc1ccc2c(c1)N(c1cccc(C(=O)O)c1)C(=O)C2(C)c1ccc(C(C)(C)C)c(F)c1 (centres unmarked) | ++ (500 nM > A2 ≥ 100 nM) |
| Cc1ccc2c(c1)N(c1cccc(C(=O)O)c1)C(=O)C2(C)c1ccc(C(C)(C)C)cc1 (centres unmarked) | ++ (500 nM > A2 ≥ 100 nM) |
| CC(C)(C)c1ccc(C2(C)C(=O)N(c3cc(C(=O)O)ccc3F)c3ccc(Cl)cc32)cc1 (centres unmarked) | ++ (500 nM > A2 ≥ 100 nM) |
| CC(C)(C)c1ccc(C2(C)C(=O)N(c3ccnc(C(=O)O)c3)c3ccc(Cl)cc32)cc1 (centres unmarked) | ++ (500 nM > A2 ≥ 100 nM) |
| CC(C)(C)c1ccc(C2(C)C(=O)N(c3cncc(C(=O)O)c3)c3ccc(Cl)cc32)cc1 (centres unmarked) | ++ (500 nM > A2 ≥ 100 nM) |
| CC(C)(C)c1ccc(C2(C)C(=O)N(c3cc(C(=O)O)ccn3)c3ccc(Cl)cc32)cc1 (centres unmarked) | +++ (100 nM > A2) |
| CC(C)(C)c1ccc(C2(C)C(=O)N(c3cccc(C(=O)O)n3)c3ccc(Cl)cc32)cc1 (centres unmarked) | ++ (500 nM > A2 ≥ 100 nM) |
| CC1(c2ccc(Cl)cc2)C(=O)N(c2cccc(C(=O)O)c2)c2ccc(Cl)cc21 (centres unmarked) | + (20000 nM ≥ A2 ≥ 500 nM) |
| COc1ccc(C2(C)C(=O)N(c3cccc(C(=O)O)c3)c3ccc(Cl)cc32)cc1F (centres unmarked) | + (20000 nM ≥ A2 ≥ 500 nM) |
| CC1(C)CCc2cc([C@]3(C)C(=O)N(c4cc(Cl)cc(C(=O)O)c4)c4ccc(Cl)cc43)ccc2O1 | +++ (100 nM > A2) |
| CC1(C)CCc2cc([C@]3(C)C(=O)N(Cc4cccc(Cl)c4C(=O)O)c4ccc(Cl)cc43)ccc2O1 | +++ (100 nM > A2) |
| COc1cccc(C(=O)O)c1CN1C(=O)[C@@](C)(c2ccc3c(c2)CCC(C)(C)O3)c2cc(Cl)ccc21 | ++ (500 nM > A2 ≥ 100 nM) |
| COc1cccc(CN2C(=O)[C@@](C)(c3ccc4c(c3)CCC(C)(C)O4)c3cc(Cl)ccc32)c1C(=O)O | +++ (100 nM > A2) |
| CC1(C)CCc2cc([C@]3(C)C(=O)N(c4cc(F)cc(C(=O)O)c4)c4ccc(Cl)cc43)ccc2O1 | +++ (100 nM > A2) |
| COc1ccc(C(=O)O)c(CN2C(=O)[C@@](C)(c3ccc4c(c3)CCC(C)(C)O4)c3cc(Cl)ccc32)c1 | +++ (100 nM > A2) |
| CC1(C)CCc2cc([C@]3(C)C(=O)N(c4cc(C#N)cc(C(=O)O)c4)c4ccc(Cl)cc43)ccc2O1 | ++ (500 nM > A2 ≥ 100 nM) |
| COc1c(C)cc(N2C(=O)[C@@](C)(c3ccc4c(c3)CCC(C)(C)O4)c3cc(Cl)ccc32)cc1C(=O)O | +++ (100 nM > A2) |
